# Reference: ChEMBL document CHEMBL1697681, “Predicting phospholipidosis using machine learning” (Mol Pharm, 2010)
# Tested on: Phospholipidosis
# Test: Literature-mined public compounds from Lowe et al phospholipidosis modelling dataset
row,SMILES,Phospholipidosis
1,Cc1cc(NS(=O)(=O)c2ccc(N)cc2)no1 [SULFAMETHOXAZOLE],Negative
2,CCN(CC)Cc1cc(Nc2ccnc3cc(Cl)ccc23)ccc1O.Cl,Positive
3,Oc1ncnc2[nH]ncc12 [ALLOPURINOL],Positive
4,NCCc1cc(O)c(O)cc1O [OXIDOPAMINE],Positive
5,CN(Cc1cnc2nc(N)nc(N)c2n1)c1ccc(C(=O)N[C@@H](CCC(=O)O)C(=O)O)cc1 [METHOTREXATE],Negative
6,OC(CN1CCCCC1)c1ccc(C=C2c3ccccc3-c3ccccc32)cc1 (configuration not stated),Positive
7,NC[C@H]1O[C@H](O[C@H]2[C@H](O)[C@@H](O[C@H]3O[C@H](CO)[C@@H](O)[C@H](N)[C@H]3O)[C@H](N)C[C@@H]2N)[C@H](N)C[C@@H]1O [TOBRAMYCIN],Positive
8,CCCC(CCC)C(=O)O [VALPROIC ACID],Negative
9,CN(C)[C@@H]1C(O)=C(C(N)=O)C(=O)[C@@]2(O)C(O)=C3C(=O)c4c(O)ccc(Cl)c4[C@@H](O)[C@H]3C[C@@H]12 [DEMECLOCYCLINE],Negative
10,CC(O)(CS(=O)(=O)c1ccc(F)cc1)C(=O)Nc1ccc(C#N)c(C(F)(F)F)c1 (configuration not stated) [BICALUTAMIDE],Negative
11,CN(C)C(=N)N=C(N)N [METFORMIN],Negative
12,CC1(C)N=C(N)N=C(N)N1OCc1ccc(Cl)c(Cl)c1 [CLOCIGUANIL],Positive
13,CC(=O)Oc1ccccc1C(=O)O [ASPIRIN],Negative
14,CC1(C)OCC(C(CS(=O)(=O)c2ccc(Oc3cccc(OC(F)(F)F)c3)cc2)NC=O)O1 (configuration not stated),Negative
15,CN[C@H]1CC[C@@H](c2ccc(Cl)c(Cl)c2)c2ccccc21 [SERTRALINE],Positive
16,C[C@](N)(Cc1ccc(O)c(O)c1)C(=O)O [METHYLDOPA],Negative
17,NC(N)=Nc1nc(CSCCC(N)=NS(N)(=O)=O)cs1 [FAMOTIDINE],Negative
18,NC[C@H]1Cc2ccc(F)cc2[C@@H](c2ccccc2)O1,Positive
19,CC(=O)Nc1ccc(O)cc1 [ACETAMINOPHEN],Negative
20,CNCCC=C1c2ccccc2CCc2ccccc21 [NORTRIPTYLINE],Positive
21,CN(C)CCCN1c2ccccc2Sc2ccccc21 [PROMAZINE],Positive
22,CC(C)N(CCC(CCN1CCCCC1)(C(N)=O)c1ccccc1Cl)C(C)C (configuration not stated) [DISOBUTAMIDE],Positive
23,CNCCCN1c2ccccc2CCc2ccccc21 [DESIPRAMINE],Positive
24,CN(C)[C@@H]1C(O)=C(C(N)=O)C(=O)[C@@]2(O)C(O)=C3C(=O)c4c(O)cccc4[C@@](C)(O)[C@H]3C[C@@H]12 [TETRACYCLINE],Negative
25,CN1C(C(=O)Nc2ccccn2)=C(O)c2ccccc2S1(=O)=O [PIROXICAM],Negative
26,ClC(Cl)Cl [CHLOROFORM],Negative

row,SMILES,Phospholipidosis
1,CCOC(=O)N1CCC(=C2c3ccc(Cl)cc3CCc3cccnc32)CC1 [LORATADINE],Positive
2,CC[C@]1(O)C[C@@H]2CN(CCc3c([nH]c4ccccc34)[C@@](C(=O)OC)(c3cc4c(cc3OC)N(C)[C@H]3[C@@](O)(C(=O)OC)[C@H](OC(C)=O)[C@]5(CC)C=CCN6CC[C@]43[C@@H]65)C2)C1 [VINBLASTINE],Negative
3,Cc1cn([C@H]2C=C[C@@H](CO)O2)c(=O)[nH]c1=O [STAVUDINE],Negative
4,CN1CCCN(C(c2ccccc2)c2ccc(Cl)cc2)CC1 (configuration not stated) [HOMOCHLORCYCLIZINE],Positive
5,CC[C@H]1CN2CCc3cc(OC)c(OC)cc3[C@@H]2C[C@@H]1C[C@H]1NCCc2cc(OC)c(OC)cc21 [EMETINE],Positive
6,CC1=CC(=O)c2ccccc2C1=O [MENADIONE],Negative
7,Cc1ccc(C)c(OCCCC(C)(C)C(=O)O)c1 [GEMFIBROZIL],Negative
8,CO[C@H]1/C=C/O[C@@]2(C)Oc3c(C)c(O)c4c(O)c(c(/C=N/N5CCN(C)CC5)c(O)c4c3C2=O)NC(=O)/C(C)=C\C=C\[C@H](C)[C@H](O)[C@@H](C)[C@@H](O)[C@@H](C)[C@H](OC(C)=O)[C@@H]1C [RIFAMPIN],Negative
9,[N-]=[N+]=CC(=O)OC[C@H](N)C(=O)O [AZASERINE],Negative
10,O=C1CN(/N=C/c2ccc(-c3ccc([N+](=O)[O-])cc3)o2)C(O)=N1 [DANTROLENE],Negative
11,N[C@H]1C(O)O[C@H](CO)[C@@H](O)[C@@H]1O (some centres not stated) [GLUCOSAMINE],Negative
12,O=C(NC1CCN(CCc2c[nH]c3ccccc23)CC1)c1ccccc1 [INDORAMIN],Positive
13,C#C[C@]1(O)CC[C@H]2[C@@H]3CCc4cc(O)ccc4[C@H]3CC[C@@]21C [ETHINYL ESTRADIOL],Negative
14,CN1CCN(Cc2nc3cccc4c3c([n+]2[O-])-c2ccccc2-4)CC1,Positive
15,CC1(C)C(=O)NC(=O)N1CC(N)COc1ccc(-c2ccc(OC(F)(F)F)cc2)cc1 (configuration not stated),Positive
16,CCCC[C@@H]1CC(=O)[C@]2(O)O[C@@H]3[C@@H](NC)[C@@H](O)[C@@H](NC)[C@H](O)[C@H]3O[C@@H]2O1 [TROSPECTOMYCIN],Positive
17,COc1cccc2c1C(=O)c1c(O)c3c(c(O)c1C2=O)C[C@@](O)(C(=O)CO)C[C@@H]3O[C@H]1C[C@H](N)[C@H](O)[C@H](C)O1 [DOXORUBICIN],Negative
18,NN [HYDRAZINE],Negative
19,CC12CC3CC(C)(C1)CC(N)(C3)C2 [MEMANTINE],Positive
20,CN(C)CCCC1(c2ccc(F)cc2)OCc2cc(C#N)ccc21 (configuration not stated) [CITALOPRAM],Positive
21,O=C(CCCN1CCC(O)(c2ccc(Cl)cc2)CC1)c1ccc(F)cc1 [HALOPERIDOL],Positive
22,CNCCC(Oc1ccc(C(F)(F)F)cc1)c1ccccc1 (configuration not stated) [FLUOXETINE],Positive
23,CC1(C)OC[C@H]([C@@H](CS(=O)(=O)c2ccc(Oc3ccc(OC(F)(F)F)cc3)cc2)N(O)C=O)O1,Negative
24,CN(C)CCON=C1c2ccccc2CCc2ccccc21 [NOXIPTILINE],Positive
25,CC(CCCN(CCCl)CCCl)Nc1ccnc2cc(Cl)ccc12 (configuration not stated) [CHLOROQUINE MUSTARD],Positive
26,CC(C)(N)Cc1ccc(Cl)cc1 [CHLORPHENTERMINE],Positive

row,SMILES,Phospholipidosis
1,CC(c1cc2ccccc2s1)N(O)C(N)=O (configuration not stated) [ZILEUTON],Negative
2,NC[C@@H]1CC[C@@H](N)[C@@H](O[C@H]2[C@H](O)[C@@H](O[C@H]3O[C@H](CO)[C@@H](O)[C@H](N)[C@H]3O)[C@H](N)C[C@@H]2N)O1 [DIBEKACIN],Positive
3,CN(C)CCN(Cc1ccccc1)c1ccccn1 [TRIPELENNAMINE],Positive
4,C[C@H]1c2cccc(O)c2C(=O)C2=C(O)[C@]3(O)C(=O)C(C(N)=O)=C(O)[C@@H](N(C)C)[C@@H]3[C@@H](O)[C@@H]21.O [DOXYCYCLINE],Negative
5,N=C(N)NCCCCCCCCCCNC(=N)N [SYNTHALIN],Negative
6,CC(=O)O[C@]1(C(C)=O)CC[C@H]2[C@@H]3C=C(Cl)C4=CC(=O)[C@@H]5C[C@@H]5[C@]4(C)[C@H]3CC[C@@]21C [CYPROTERONE ACETATE],Negative
7,Cc1cccc(Nc2cc(Cl)nc(SCC(=O)O)n2)c1C [PIRINIXIC ACID],Negative
8,CN(C)CCCN1c2ccccc2CCc2ccccc21 [IMIPRAMINE],Positive
9,CC[C@H]1OC(=O)[C@H](C)[C@@H](O[C@H]2C[C@@](C)(OC)[C@@H](O)[C@H](C)O2)[C@H](C)[C@@H](O[C@@H]2O[C@H](C)C[C@H](N(C)C)[C@H]2O)[C@](C)(OC)C[C@@H](C)C(=O)[C@H](C)[C@@H](O)[C@]1(C)O [CLARITHROMYCIN],Negative
10,CCOC(=O)C(C)(C)Oc1ccc(Cl)cc1 [CLOFIBRATE],Negative
11,C[C@H]1COc2c(N3CCN(C)CC3)c(F)cc3c(=O)c(C(=O)O)cn1c23.C[C@H]1COc2c(N3CCN(C)CC3)c(F)cc3c(=O)c(C(=O)O)cn1c23.O [LEVOFLOXACIN],Negative
12,CNCCCC12CCC(c3ccccc31)c1ccccc12 [MAPROTILINE],Positive
13,CCOC(=O)C1N=C(c2ccccc2F)c2cc(Cl)ccc2NC1=O (configuration not stated) [ETHYL LOFLAZEPATE],Positive
14,COc1cc2c(c(OC)c1OC)-c1ccc(OC)c(=O)cc1[C@@H](NC(C)=O)CC2 [COLCHICINE],Negative
15,Clc1ccc(C(c2ccccc2)N2CCNCC2)cc1 (configuration not stated) [NORCHLORCYCLIZINE],Positive
16,NC(=O)OCC(COC(N)=O)c1ccccc1 [FELBAMATE],Negative
17,Cc1ccc(C(=O)Nc2ccc(S(=O)(=O)O)c3cc(S(=O)(=O)O)cc(S(=O)(=O)O)c23)cc1NC(=O)c1cccc(NC(=O)Nc2cccc(C(=O)Nc3cc(C(=O)Nc4ccc(S(=O)(=O)O)c5cc(S(=O)(=O)O)cc(S(=O)(=O)O)c45)ccc3C)c2)c1 [SURAMIN],Positive
18,CCN(CC)CCNC(=O)c1ccc(N)cc1 [PROCAINAMIDE],Negative
19,CC(C)(O/N=C(\C(=O)N[C@@H]1C(=O)N2C(C(=O)[O-])=C(C[n+]3ccccc3)CS[C@H]12)c1csc(N)n1)C(=O)O [CEFTAZIDIME],Negative
20,CCCNCCc1ccc(NS(=O)(=O)c2ccc(OC(F)(F)F)cc2)cc1,Positive
21,CN[C@@H]1[C@@H](O)[C@@H](O[C@@H]2[C@@H](O)[C@H](O[C@H]3O[C@H](C(C)N)CC[C@H]3N)[C@@H](N)C[C@H]2N)OC[C@]1(C)O (some centres not stated) [GENTAMICIN C2],Positive
22,Cn1c(=O)c2c(ncn2C)n(C)c1=O [CAFFEINE],Negative
23,CC(C)C(=O)Nc1ccc([N+](=O)[O-])c(C(F)(F)F)c1 [FLUTAMIDE],Negative
24,CN[C@@H]1[C@@H](O)[C@@H](O[C@@H]2[C@@H](O)[C@H](O[C@H]3O[C@H]([C@@H](C)NC)CC[C@H]3N)[C@@H](N)C[C@H]2N)OC[C@]1(C)O [GENTAMICIN C1],Positive
25,N#Cc1ccc(NC(=O)N=C(N)N)cc1Cl [CLOGUANAMIL],Positive
